Laboratory results published in patent publication US10183047B2, “Chromium-containing compositions in combination with Phyllanthus emblica and shilajit having synergistic effects for improving endothelial function and cardiovascular health” (Natreon, Inc., priority 2014, dated 2019).
Marks after values point to notes of the source that are not given here.

Assays:
Format in all cases: in vivo, human
endothelial function = assay: Reflection index (RI), salbutamol challenge test with digital volume plethysmography, type 2 diabetics; conditions: for RI: DM, 400 mcg; for Absolute change of RI / Reflection index (%) Post Tt / Reflection index (%) Pre Tt: type 2 diabetics (Example 3), chromium products 400 mcg; for Absolute change of RI: 12 week treatment; for Reflection index (%) Post Tt: post-treatment, 12 weeks; for Reflection index (%) Pre Tt: pre-treatment
Description: (§1) The present clinical study is a prospective, randomized, double blind, placebo-controlled study. Patients of either sex, aged 30-65 years, fasting plasma glucose of 110-126 mg/dl, a glycosylated hemoglobin (HbA1c) between 6.5% and 8% and taking stable dose of anti-diabetic treatment (metformin 1500-2000 mg/day) for the past 8 weeks prior to the screening visit; and having endothelial dysfunction defined as ≤6% change in reflection index (RI) on post salbutamol challenge test were included in the study. Patients with severe uncontrolled hyperglyceamia, uncontrolled hypertension, cardiac arrhythmia, impaired hepatic or renal function, history of malignancy or stroke, smoking, chronic alcoholism, any other serious disease requiring active treatment and treatment with any other herbal supplements, were excluded from the study.
(§2) After screening, all the eligible subjects were randomized to receive either one of the three treatments orally for duration of 12 weeks—Group1—one capsule of Crominex®3+, 200 mcg once daily, Group 2—one capsule Crominex®3+, 400 mcg once daily; Group 3—one capsule of placebo once daily.
(§3) Subjects were required for follow up at 4, 8 and 12 weeks of therapy. At each visit they were evaluated for efficacy and safety. Pharmacodynamic evaluation for endothelial function was conducted at every visit. Blood samples were collected for evaluation of biomarkers before and at the end of treatment. Safety lab investigations for hematological, hepatic and renal biochemical parameters were conducted before and at the end of the study and also as and when required (in case of any adverse drug reaction (ADR). Subjects were enquired for the presence of ADR and the same was recorded in the case report form. Compliance to therapy was assessed by pill count method.
Procedure for Assessment of Endothelial Function by Determination of Reflection Index (RI).
A salbutamol (albuterol) challenge test employing digital volume plethysmography was used to assess endothelial function as reported by Chowienczyk et al., “Photoplethysmographic assessment of pulse wave reflection: blunted response to endothelium dependant beta 2-adrenergic vasodilation in type 2 diabetes mellitus,” J. Am. Coll. Cardiol. (1999 December) 34(7):2007-14; and Naidu, et al., “Comparison of two β2 adrenoceptor agonists by different routes of administration to assess human endothelial function,” Indian J. Pharmacol. (2007) 39:168-9. The patients were examined in supine position after 5 minutes of rest. A digital volume pulse (DVP) was obtained using a photo plethysmograph (Pulse Trace PCA2, PT200, Micro Medical, Gallingham, Kent, UK) transmitting infrared light at 940 nm, placed on the index finger of the right hand. The signal from the plethysmograph was digitized using a 12 bit analogue to digital converter with a sampling frequency of 100 Hz. DVP waveforms were recorded over 20 second period and the height of the late systolic/early diastolic portion of the DVP was expressed as a percentage of the amplitude of the DVP to yield the reflection index (RI), per the procedure described in detail by Millasseau et al., “Determination of age related increases in large artery stiffness by digital pulse contour analysis,” Clinical Science (2002) 103: 371-377. Three DVP recordings were taken, and measurements of reflection index (RI) were calculated and the mean value was determined. Patients were then administered 400 μg of salbutamol by inhalation. After 15 minutes three measurements of RI were obtained again and the difference in mean RI before and after administration of salbutamol was used for assessing endothelial function. A change of ≤6% in RI post-salbutamol was considered as endothelial dysfunction.
The primary efficacy measure was a change in endothelial dysfunction as assessed by more than 6% change in reflection index at 12 weeks. […]

nitric oxide (NO) = assay: Nitric oxide level, metabolic syndrome subjects; conditions: for NO: MS, 400 mcg; for NO Post Tt / Mean percentage change in NO / NO Pre Tt: metabolic syndrome subjects (Example 4), chromium products 400 mcg; for NO Post Tt: after 12 weeks of treatment; for Mean percentage change in NO: after 12 weeks treatment; for NO Pre Tt: pre-treatment
Description: Nitric oxide, MDA, Glutathione and levels were estimated spectrophotometrically as follows. Malondialdehyde (MDA) levels were determined as described in Vidyasagar, et al., “Oxidative stress and antioxidant status in acute organophosphorous insecticide poisoning,” Indian J. Pharmacol. (April 2004) 36(2): 76-79. Glutathione levels were determined as described in G. L. Ellman, Arch. Biochem. Biophys. (1959) 82: 70-77 (original determination). Nitric oxide levels were estimated spectrophotometrically as described in Miranda, et al., “A Rapid, Simple Spectrophotometric Method for Simultaneous Detection of Nitrate and Nitrite,” NITRIC OXIDE: Biology and Chemistry (2001) Vol. 5, No. 1, pp. 62-71. hsCRP (high sensitivity C-reactive protein) was determined by ELISA method.
Patients included in the study, were of either gender, aged 30-68 years, having endothelial dysfunction defined as ≤6% change in reflection index (RI) on post salbutamol challenge test and central obesity as defined by The International Diabetes Federation guidelines, dated 2006, and any two of the following conditions:
After screening, all the eligible subjects were randomized to receive either one of the three treatments orally for duration of 12 weeks: group 1—one capsule of Crominex®3+ 200 mcg once daily; group 2—one capsule 400 mcg once daily; group 3—one capsule of Placebo once daily.
Subjects were reviewed for follow up at 4 weeks, 8 and 12 weeks of therapy. At each visit they were evaluated for efficacy and safety. Pharmacodynamic evaluation for endothelial function was conducted at baseline and end of treatment. Blood samples were collected for evaluation of biomarkers before and at end of treatment. Safety lab investigations for hematological, hepatic and renal biochemical parameters were conducted before and at the end of the study and also as and when required (in case of any adverse drug reaction (ADR)). Subjects were enquired for the presence of ADR and the same was recorded in the case report form. Compliance to therapy was assessed by pill count method.
Assessment of endothelial function, biomarkers, safety parameters and primary and secondary efficacy parameters and data analysis were performed as described under the study with type 2 diabetic subjects in Example 1.
(§4) When the results with Crominex® 3+ in the above two examples were highly significant, especially with the 400 mcg once daily dose in type 2 diabetics, two more clinical studies (EXAMPLES 3 & 4) were conducted at the same institute, following the same methodology as described earlier, on the individual components of Crominex® 3+, i.e., chromium chloride and Phyllanthus emblica+Shilajit, and other chromium supplements available in the market, i.e., chromium picolinate, chromium polynicotinate and chromium dinicocysteinate, in type 2 diabetics as well as in subjects with metabolic syndrome symptoms.

lipid profile = assay: Lipid profile (TC, HDL-C, LDL-C, TG, VLDL-C), type 2 diabetics; conditions: for HDL / LDL / TC / TG: DM, 400 mcg; for Mean percentage change in HDL-C / Mean percentage change in LDL-C / Mean percentage change in Total Cholesterol / Mean percentage change in Triglycerides / HDL-C Post Tt / LDL-C Post Tt / Total Cholesterol Post Tt / Triglycerides Post Tt / HDL-C Pre Tt / LDL-C Pre Tt / Total Cholesterol Pre Tt / Triglycerides Pre Tt: type 2 diabetics (Example 3), chromium products 400 mcg; for Mean percentage change in HDL-C / Mean percentage change in LDL-C / Mean percentage change in Total Cholesterol / Mean percentage change in Triglycerides: 12 weeks of treatment; for HDL-C Post Tt / LDL-C Post Tt / Total Cholesterol Post Tt / Triglycerides Post Tt: post-treatment, 12 weeks; for HDL-C Pre Tt / LDL-C Pre Tt / Total Cholesterol Pre Tt / Triglycerides Pre Tt: pre-treatment
Description: as §1, §2, §3
All the subjects had undergone complete physical examination, safety lab evaluations at baseline and at the end of the treatment. Samples were collected after an overnight fast of 12 hrs after the last dose of medication for determination of hemoglobin, glycosylated hemoglobin (HbA1c), blood urea, serum creatinine, liver function, lipid profile (Total cholesterol, High density lipoprotein cholesterol (HDL-C), low density lipoprotein cholesterol (LDL-C) using appropriate standard techniques.
as §4

| Molecule | RI (endothelial function) | Absolute change of RI (endothelial function) | Reflection index (%) Post Tt (endothelial function) | Reflection index (%) Pre Tt (endothelial function) | NO (nitric oxide (NO)) | NO Post Tt (nitric oxide (NO)) | Mean percentage change in NO (nitric oxide (NO)) | NO Pre Tt (nitric oxide (NO)) | HDL (lipid profile) | LDL (lipid profile) | TC (lipid profile) | TG (lipid profile) | Mean percentage change in HDL-C (lipid profile) | Mean percentage change in LDL-C (lipid profile) | Mean percentage change in Total Cholesterol (lipid profile) | Mean percentage change in Triglycerides (lipid profile) | HDL-C Post Tt (lipid profile) | LDL-C Post Tt (lipid profile) | Total Cholesterol Post Tt (lipid profile) | Triglycerides Post Tt (lipid profile) | further results |
| --- | --- | --- | --- | --- | --- | --- | --- | --- | --- | --- | --- | --- | --- | --- | --- | --- | --- | --- | --- | --- | --- |
| O.O.O.O.O.O.[Cl][Cr]([Cl])[Cl] [Chromium chloride, Chromium chloride (CrCl3.6H2O)] | −0.57% | −0.57 + 0.36 #NS % | −3.22 ± 0.85 % | −3.79 ± 0.82^ % | 5.5% | 30.99 ± 4.46 μM/L | 5.50 ± 1.73% | 29.39 ± 4.43 μM/L | 2.79% | −1.3% | −0.28% | −0.49% | 2.79 ± 2.88 @NS % | −1.30 ± 1.42 NS % | −0.28 ± 0.81 #NS % | −0.49 ± 0.93 NS % | 39.95 ± 2.72 mg/dL | 108.93 ± 10.40 mg/dL | 184.89 ± 9.67 NS mg/dl | 180.11 ± 7.80 $ mg/dl | HDL-C Pre Tt (lipid profile): 38.89 ± 2.85 mg/dL; LDL-C Pre Tt (lipid profile): 110.33 ± 10.74 mg/dL; Total Cholesterol Pre Tt (lipid profile): 185.42 ± 9.68 mg/dL; Triglycerides Pre Tt (lipid profile): 181.00 ± 7.84 mg/dL |
| chromium dinicocysteinate | −1.03% | −1.03 + 0.34 #NS % | −3.82 ± 0.74 % | −4.85 ± 0.74^ % | 7.68% | 32.66 ± 3.88 μM/L | 7.68 ± 2.25% | 30.33 ± 3.58 μM/L | 1.19% | −0.81% | −0.38% | −0.37% | 1.19 ± 4.01 NS % | −0.81 ± 1.52 $NS % | −0.38 ± 0.86 #NS % | −0.37 ± 0.92 NS % | 37.83 ± 2.90 NS mg/dl | 128.91 ± 16.46 $^ mg/dl | 201.28 ± 17.29 NS mg/dl | 172.67 ± 3.88 NS mg/dl | HDL-C Pre Tt (lipid profile): 37.39 ± 2.43 mg/dL; LDL-C Pre Tt (lipid profile): 130.00 ± 16.71 mg/dL; Total Cholesterol Pre Tt (lipid profile): 202.06 ± 17.48 mg/dL; Triglycerides Pre Tt (lipid profile): 173.33 ± 4.83 mg/dL |
| chromium picolinate | −2.2% | −2.22 + 0.89 # % | −2.46 ± 0.90 % | −4.68 ± 1.24^ % | 13.9% | 32.94 ± 3.79 μM/L | 13.92 ± 2.65% | 28.94 ± 3.56 μM/L | 2.96% | −2.35% | −0.99% | −0.58% | 2.96 ± 3.38 @NS % | −2.35 ± 1.81 @NS % | −0.99 ± 1.08NS % | −0.58 ± 1.04 NS % | 39.84 ± 1.12 $ mg/dl | 119.07 ± 18.46 mg/dL | 194.68 ± 17.93 $ mg/dl | 178.84 ± 8.45 $ mg/dl | HDL-C Pre Tt (lipid profile): 38.74 ± 1.69 mg/dL; LDL-C Pre Tt (lipid profile): 121.92 ± 18.50 mg/dL; Total Cholesterol Pre Tt (lipid profile): 196.63 ± 18.07 mg/dL; Triglycerides Pre Tt (lipid profile): 179.89 ± 8.65 mg/dL |
| chromium polynicotinate | −1.04% | −1.04 + 0.39 #NS % | −3.71 ± 1.1 $ % | −4.3 ± 1.2% | 5.35% | 32.93 ± 4.66 μM/L | 5.35 ± 0.96% | 31.26 ± 4.46 μM/L | −1.23% | −0.38% | −0.68% | −0.68% | −1.23 ± 3.71 @NS % | −0.38 ± 2.10 @NS % | −0.68 ± 1.21$NS % | −0.68 ± 0.83 NS % | 38.65 ± 1.42 NS mg/dl | 123.32 ± 8.70 NS mg/dl | 198.00 ± 8.64 $^ mg/dl | 180.15 ± 3.84 @ mg/dl | HDL-C Pre Tt (lipid profile): 39.15 ± 1.23 mg/dL; LDL-C Pre Tt (lipid profile): 123.97 ± 9.73 mg/dL; Total Cholesterol Pre Tt (lipid profile): 199.40 ± 9.25 mg/dL; Triglycerides Pre Tt (lipid profile): 181.40 ± 4.47 mg/dL |
